Results reported in patent US11236055B2 (Venenum Biodesign, LLC, priority 2016, dated 2022).

Legend:
human TGR5 receptor = target: T1, human TGR5 receptor (Homo sapiens, UniProt Q8TDU6); test: Human TGR5 cAMP production assay; type: cell-based; conditions: human TGR5, luminescent cAMP assay; coded A-D; read-out: Human TGR5 Lum. cAMP Activity (EC50)
T1 construct: host or cells: CHO-K1 (hTGR5-CHO cells)
T1 sequence (Q8TDU6 1-330): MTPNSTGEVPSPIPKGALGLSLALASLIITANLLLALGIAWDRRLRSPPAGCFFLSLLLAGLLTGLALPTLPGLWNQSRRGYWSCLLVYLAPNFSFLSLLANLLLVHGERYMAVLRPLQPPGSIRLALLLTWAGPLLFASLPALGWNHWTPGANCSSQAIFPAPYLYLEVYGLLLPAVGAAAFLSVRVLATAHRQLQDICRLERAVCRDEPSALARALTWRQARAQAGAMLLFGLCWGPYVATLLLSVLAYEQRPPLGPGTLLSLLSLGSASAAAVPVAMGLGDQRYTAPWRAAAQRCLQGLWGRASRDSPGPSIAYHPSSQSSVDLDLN
In short: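 Intracellular cAMP read by luminescent enzyme-complementation (XS+) after overnight development, following 1 h room-temperature compound treatment of hTGR5-CHO-K1 cells in IBMX plus anti-cAMP antibody. Compounds tested as half-log dilution series; EC50 derived.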

mouse TGR5 receptor = target: T2, mouse TGR5 receptor (Mus musculus, UniProt Q80SS6); test: Mouse TGR5 cAMP production assay (HTRF, Cisbio cAMP HiRange); type: cell-based; conditions: HEK293-EBNA cells overexpressing mouse TGR5, HTRF cAMP HiRange; coded A-D
T2 construct: expressed in transfected cells; host or cells: HEK293-EBNA (293 c18, ATCC CRL10852), Hygromycin B selection
T2 sequence (Q80SS6 1-329): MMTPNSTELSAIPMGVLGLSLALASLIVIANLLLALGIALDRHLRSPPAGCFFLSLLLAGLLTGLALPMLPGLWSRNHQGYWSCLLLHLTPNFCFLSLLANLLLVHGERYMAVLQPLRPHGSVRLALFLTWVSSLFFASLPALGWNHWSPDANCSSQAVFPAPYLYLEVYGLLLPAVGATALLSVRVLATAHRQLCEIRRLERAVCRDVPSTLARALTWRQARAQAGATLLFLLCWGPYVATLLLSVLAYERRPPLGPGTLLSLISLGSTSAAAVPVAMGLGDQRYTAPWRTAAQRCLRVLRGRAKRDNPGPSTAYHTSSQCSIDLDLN
In short: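 cAMP read by HTRF competition after 1 h room-temperature compound exposure of mouse TGR5-overexpressing HEK293-EBNA cells. Cells were suspended in serum-free DMEM containing 500 μM IBMX; compounds ran as 12-point half-log dilutions in duplicate; EC50 derived.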

EC50 (human TGR5 receptor)	EC50 (mouse TGR5 receptor)	Structure (SMILES)
< 100 nM	< 100 nM	CCc1cnccc1-c1cccc([C@H](CCCC#N)NS(=O)(=O)c2ccccc2C(F)(F)F)c1 [Compound 6AC, (S)-N-(4-cyano-1-(3-(3-ethylpyridin-4-yl)phenyl)butyl)-2-(trifluoromethyl)benzenesulfonamide]
< 100 nM	< 100 nM	Cc1cnccc1-c1cccc(C2CN(C(=O)CCCC(=O)O)CCN2S(=O)(=O)c2cccc(Cl)c2C)c1 (stereo not shown) [Compound 46AE, 5-(4-((3-chloro-2-methylphenyl)sulfonyl)-3-(3-(3-methylpyridin-4-yl)phenyl)piperazin-1-yl)-5-oxopentanoic acid]
100 to 999 nM	1000 to 30000 nM	Cc1c(Cl)cccc1S(=O)(=O)N[C@@H](C)c1cccc(-c2ccnn2C)c1 [Compound 4, (S)-3-Chloro-2-methyl-N-(1-(3-(1-methyl-1H-pyrazol-5-yl)phenyl)ethyl)benzenesulfonamide]
100 to 999 nM	< 100 nM	COc1cccc(S(=O)(=O)N2CCN(C(=O)CS(=O)(=O)O)CC2c2cccc(-c3ccncc3C)c2)c1 (stereo not shown) [Compound 49AB, 2-(4-((3-methoxyphenyl)sulfonyl)-3-(3-(3-methylpyridin-4-yl)phenyl)piperazin-1-yl)-2-oxoethanesulfonic acid]
< 100 nM	100 to 999 nM	CCOC(=O)CCN/C(=N/C#N)NCCCN(C(C)(C)c1cccc(-c2ccncc2C)c1)S(=O)(=O)c1cccc(Cl)c1C [Compound 25A, Ethyl (E)-3-(3-(3-((3-chloro-2-methyl-N-(2-(3-(3-methylpyridin-4-yl)phenyl)propan-2-yl)phenyl)sulfonamido)propyl)-2-cyanoguanidino)propanoate]
< 100 nM	100 to 999 nM	Cc1c(Cl)cccc1S(=O)(=O)N(CCCC(=O)O)C(C)(C)c1cccc(-c2ccncc2CO)c1 [Compound 16AC, 4-(3-chloro-N-(2-(3-(3-(hydroxymethyl)pyridin-4-yl)-phenyl)propan-2-yl)-2-methylphenylsulfonamido)butanoic acid]
100 to 999 nM	100 to 999 nM	Cc1cnccc1-c1cccc(C(CCCCC#N)NS(=O)(=O)c2cccc(Cl)c2C)c1 (stereo not shown) [Compound 35, 3-chloro-N-(5-cyano-1-(3-(3-methylpyridin-4-yl)phenyl)pentyl)-2-methylbenzenesulfonamide]
< 100 nM	< 100 nM	CCc1cnccc1-c1cccc(C(C)(C)NS(=O)(=O)c2cccc(Cl)c2C)c1 [Compound 2BY]
< 100 nM	< 100 nM	Cc1cnccc1-c1cccc([C@H](C)N(CCCCO)S(=O)(=O)c2cccc(Cl)c2C)c1 [Compound 39, (S)-3-chloro-N-(4-hydroxybutyl)-2-methyl-N-(1-(3-(3-methylpyridin-4-yl)phenyl)ethyl)Benzenesulfonamide]
100 to 999 nM	100 to 999 nM	Cc1cnccc1-c1cccc([C@H](C)N(CCCC(=O)O)S(=O)(=O)c2ccccc2C)c1 [Compound 16AD, (S)-4-(2-methyl-N-(1-(3-(3-methylpyridin-4-yl)phenyl)-ethyl)phenylsulfonamido)butanoic acid]
< 100 nM	100 to 999 nM	Cc1cnccc1-c1cccc(C(C)(C)N(CCCC(=O)NCCN(C)C)S(=O)(=O)c2cccc(Cl)c2C)c1 [Compound 21AD, 4-(3-chloro-2-methyl-N-(2-(3-(3-methylpyridin-4-yl)phenyl)propan-2-yl)phenylsulfonamido)-N-(2-(dimethyl-amino)ethyl)butanamide]
1000 to 30000 nM	1000 to 30000 nM	COC(=O)C(NS(=O)(=O)c1cccc(C(F)(F)F)c1)c1cccc(-c2ccncc2OC)c1 (stereo not shown) [Compound 1CE]
< 100 nM	100 to 999 nM	Cc1cnccc1-c1cccc([C@H](C)N(CCCC(=O)NCCC(=O)O)S(=O)(=O)c2cccc(Cl)c2C)c1 [Compound 21AH, (S)-3-(4-(3-chloro-2-methyl-N-(1-(3-(3-methylpyridin-4-yl)phenyl)ethyl)phenylsulfonamido)butanamido)propanoic acid]
100 to 999 nM	1000 to 30000 nM	COc1cnccc1-c1cccc(C(C)(C)NS(=O)(=O)c2cc(C(F)(F)F)ccc2C(F)(F)F)c1 [Compound 2BK]
100 to 999 nM	100 to 999 nM	Cc1cnccc1-c1cccc([C@H](CCCC#N)N(CCCC(=O)O)S(=O)(=O)c2cccc(Cl)c2C)c1 [Compound 15AD, (S)-4-(3-chloro-N-(4-cyano-1-(3-(3-methylpyridin-4-yl)phenyl)butyl)-2-methylphenylsulfonamido) butanoic acid]
100 to 999 nM	1000 to 30000 nM	Cc1cnccc1-c1cccc([C@H](CCCC#N)N(CCCC(=O)OC(C)(C)C)S(=O)(=O)c2cccc(Cl)c2C)c1 [Compound 15AC, (S)-tert-butyl 4-(3-chloro-N-(4-cyano-1-(3-(3-methylpyridin-4-yl)phenyl)butyl)-2-methylphenylsulfonamido) butanoate]
100 to 999 nM	100 to 999 nM	CCc1cnccc1-c1cccc(C2CN(CC(=O)O)CCN2S(=O)(=O)c2cccc(Cl)c2C)c1 (stereo not shown) [Compound 51, 2-(4-((3-Chloro-2-methylphenyl)sulfonyl)-3-(3-(3-ethylpyridin-4-yl)phenyl)piperazin-1-yl)acetic acid]
< 100 nM	< 100 nM	Cc1cnccc1-c1cccc([C@H](CCCC#N)NS(=O)(=O)c2cccc(Cl)c2C)c1 [Compound 2BZ]
< 100 nM	< 100 nM	CCc1cnccc1-c1cccc([C@H](C)NS(=O)(=O)c2ccccc2C(F)(F)F)c1 [Compound 5AQ, (S)-N-(1-(3-(3-ethylpyridin-4-yl)phenyl)ethyl)-2-(trifluoromethyl)benzenesulfonamide]
< 100 nM	< 100 nM	Cc1cnccc1-c1cccc([C@H](C)N(CCCC(=O)NCCS(=O)(=O)NCC(=O)O)S(=O)(=O)c2ccc(F)cc2C(F)(F)F)c1 [Compound 36, (S)-2-(4-(4-fluoro-N-(1-(3-(3-methylpyridin-4-yl)phenyl)ethyl)-2-(trifluoromethyl)phenylsulfonamido)butanamido)ethanesulfonamido acetic acid]
1000 to 30000 nM	1000 to 30000 nM	Cc1nccc(-c2cccc(C(C)(C)NS(=O)(=O)c3cccc(C(F)(F)F)c3)c2)c1C [Compound 5AC, N-(2-(3-(2,3-dimethylpyridin-4-yl)phenyl)propan-2-yl)-3-(trifluoromethyl)-benzenesulfonamide]
100 to 999 nM	1000 to 30000 nM	Cc1nccc(-c2cccc([C@H](C)NS(=O)(=O)c3cccc(Cl)c3C)c2)c1C [Compound 7AB, (S)-3-chloro-N-(1-(3-(2,3-dimethylpyridin-4-yl)phenyl)ethyl)-2-methylbenzenesulfonamide]
1000 to 30000 nM	> 30000 nM	CC(C)(NS(=O)(=O)c1ccccc1C(F)(F)F)c1cccc(-c2ccc3[nH]cnc3c2)c1 [Compound 5AL, N-(2-(3-(1H-benzo[d]imidazol-5-yl)phenyl)propan-2-yl)-2-(trifluoromethyl)benzenesulfonamide]
100 to 999 nM	< 100 nM	Cc1cnccc1-c1cccc([C@H](C)N(CCCC(=O)O)S(=O)(=O)c2cccc(Cl)c2C)c1 [Compound 16]
< 100 nM	< 100 nM	Cc1cnccc1-c1cccc(C(C)(C)N(CCCC(=O)NCCNc2ncc(C(=O)O)cn2)S(=O)(=O)c2cccc(Cl)c2C)c1 [Compound 27AA, 2-((2-(4-(3-chloro-2-methyl-N-(2-(3-(3-methylpyridin-4-yl)Phenyl)propan-2-yl)phenylsulfonamido)butanamido)ethyl)amino)pyrimidine-5-carboxylic acid]
1000 to 30000 nM	1000 to 30000 nM	COc1cnccc1-c1ccnc(CNS(=O)(=O)c2ccccc2C(F)(F)F)c1 [Compound 1BT]
100 to 999 nM	< 100 nM	CCc1cnccc1-c1cccc([C@H](C)N(CCCCN)S(=O)(=O)c2cccc(Cl)c2C)c1 [Compound 24AC, (S)-N-(4-aminobutyl)-3-chloro-N-(1-(3-(3-ethylpyridin-4-yl)phenyl)ethyl)-2-methylbenzenesulfonamide]
< 100 nM	100 to 999 nM	Cc1cnccc1-c1cccc(C2CCCN2S(=O)(=O)c2ccccc2C(F)(F)F)c1 (racemic) [Compound 41, (+/−) 3-Methyl-4-(3-(1-((2-(trifluoromethyl)phenyl)sulfonyl)pyrrolidin-2-yl)phenyl)pyridine]
< 100 nM	100 to 999 nM	Cc1cnccc1-c1cccc([C@@H](C)NS(=O)(=O)c2ccccc2C(F)(F)F)c1 [Compound 5AT, (R)-N-(1-(3-(3-methylpyridin-4-yl)phenyl)ethyl)-2-(trifluoromethyl)benzenesulfonamide]
